Test results taken from ChEMBL document CHEMBL1201862, “PubChem BioAssay data set” (2004).
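Cells were grown in 96-well plates and exposed to each compound for 48 hours at five concentrations; endpoints were interpolated linearly between bracketing concentrations, or set to the highest concentration if not reached. GI50 marks 50% less growth.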 Active and inactive are the calls of the source. Cut-off read from the data, not from the text of the source: active = GI50 up to about 1.1 µM and inactive = higher.

Tests used:
Assay in all cases: NCI anticancer screen, dose series, 48 h
OVCAR-4 = tested on: OVCAR-4
U-251 = tested on: U-251
RPMI-8226 = tested on: RPMI-8226
SN12C = tested on: SN12C
M14 = tested on: M14
SK-MEL-28 = tested on: SK-MEL-28
TK-10 = tested on: TK-10
UACC-257 = tested on: UACC-257
CAKI-1 = tested on: CAKI-1
HCC 2998 = tested on: HCC 2998
A549 = tested on: A549
SNB-19 = tested on: SNB-19
LOX IMVI = tested on: LOX IMVI
ACHN = tested on: ACHN
A498 = tested on: A498
HL-60 = tested on: HL-60
NCI-H522 = tested on: NCI-H522

Measured: GI50

CC[P+](C)(C)c1ccccc1
inactive: OVCAR-4 99.3 µM | U-251 > 100 µM | RPMI-8226 > 100 µM | SN12C > 100 µM | M14 > 100 µM | SK-MEL-28 > 100 µM | TK-10 > 100 µM | UACC-257 > 100 µM | CAKI-1 > 100 µM | HCC 2998 > 100 µM | A549 > 100 µM | SNB-19 > 100 µM | LOX IMVI > 100 µM | ACHN > 100 µM | A498 > 100 µM

O=C(O/N=C1/CCC/C1=C\c1ccccc1)c1ccccc1
inactive: OVCAR-4 > 100 µM | U-251 > 100 µM | RPMI-8226 50.5 µM | SN12C > 100 µM | M14 > 100 µM | HL-60 37.8 µM | SK-MEL-28 > 100 µM | TK-10 > 100 µM | UACC-257 > 100 µM | CAKI-1 > 100 µM | A549 > 100 µM | LOX IMVI 61.8 µM | NCI-H522 53 µM | ACHN > 100 µM | A498 > 100 µM

COc1cc2cnc3c4cc(OCc5ccccc5)ccc4ccc3c2cc1OC
inactive: OVCAR-4 6.92 µM | U-251 24.3 µM | RPMI-8226 2.96 µM | SN12C 73.3 µM | M14 19.8 µM | HL-60 1.66 µM | SK-MEL-28 38.3 µM | TK-10 16.1 µM | UACC-257 26.7 µM | CAKI-1 26.7 µM | HCC 2998 31.8 µM | A549 25.5 µM | SNB-19 34.8 µM | LOX IMVI 29.6 µM | NCI-H522 17.3 µM | ACHN 46.7 µM

NC(=O)c1cn(C2OC(CO)C(O)C2O)c(=O)[nH]c1=O (stereo not given)
inactive: OVCAR-4 > 100 µM | U-251 > 100 µM | RPMI-8226 > 100 µM | M14 > 100 µM | HL-60 > 100 µM | SK-MEL-28 > 100 µM | TK-10 > 100 µM | UACC-257 > 100 µM | CAKI-1 > 100 µM | A549 > 100 µM | LOX IMVI > 100 µM | NCI-H522 > 100 µM | ACHN > 100 µM | A498 > 100 µM

CO[C@H](C(=O)O[C@H]1C(=O)N2CCC3CCC1C32C)c1ccccc1 (stereo not given in full)
inactive: OVCAR-4 > 100 µM | U-251 > 100 µM | RPMI-8226 > 100 µM | SN12C > 100 µM | M14 > 100 µM | HL-60 > 100 µM | SK-MEL-28 > 100 µM | UACC-257 > 100 µM | CAKI-1 > 100 µM | HCC 2998 > 100 µM | A549 > 100 µM | SNB-19 > 100 µM | LOX IMVI > 100 µM | NCI-H522 > 100 µM | ACHN > 100 µM
